Experimental data: patent US10813891B2, “Method of inhibiting chronification of pain” (priority 2011, dated 2020)

Assays:
Format in all cases: in vivo, rat
[1] = tested on: mRNA encoding ATF3, IL-6 and BDNF; assay: Real time qRT-PCR of mRNA in trigeminal ganglion and Sp5c of CCI-ION rats; conditions: subchronic 10 mg/kg i.p. twice daily; ipsilateral trigeminal ganglion and Sp5c area; 4 h after last injection
Procedure: (§1) Subchronic treatment consisted of twice daily injections of tapentadol (10 mg/kg, i.p. at 10:00 am and 6:00 pm) or saline for 4 days starting on the 15th day after nerve ligation in both CCI-ION and CCI-SN rats. Animals were further injected with tapentadol (10 mg/kg i.p.) or saline at 10:00 am the following day (19th day post-surgery), and assessment of allodynia with von Frey filament tests (see below) was made at various times up to 4 hours after this injection. All rats were killed by decapitation 4 hours after the last injection for real-time qRT-PCR determinations of specific mRNAs in ganglia and central tissues (see below).
Animals used for qRT-PCR procedure were decapitated immediately after performance of von Frey filament test four hours after the last injection of tapentadol or saline for subchronic treatment conditions (see above). […]
First-stranded cDNA synthesis (from 660 ng total RNA per 20 μl reaction mixture) was carried out using SuperScript™ III Reverse Transcriptase and random primers (250 ng per reaction), as recommended by the manufacturer (Invitrogen, Cergy Pontoise, France). […] Semi-quantitative determinations were made with reference to the reporter gene encoding glyceraldehyde 3-phosphate dehydrogenase (GaPDH; Rn99999916_sl). […] Specific mRNA levels were calculated after normalizing from GaDPH mRNA in each sample (Latrémolière et al., 2008). […]

[2] = tested on: CCI-ION rats
Procedure: (§2) Male Sprague-Dawley rats (Charles River Laboratories, L'Arbresle, France), weighing 150-200 g on arrival, were used. Animals were maintained under controlled environmental conditions (22±1° C., 60% relative humidity, 12 h/12 h light/dark cycle, food and water ad libitum) starting from reception in the laboratory, for at least 1 week before any intervention or treatment and thereafter, until euthanasia.
Rats were anaesthetized with sodium pentobarbital (50 mg/kg i.p.). Unilateral CCI-ION was performed under direct visual control using a Zeiss microscope (10-25×). Briefly, the head was fixed in a Horsley-Clarke stereotaxic frame and a midline scalp incision was made, exposing skull and nasal bone. The edge of the orbit, formed by the maxillary, frontal, lacrimal, and zygomatic bones, was dissected free. The orbital contents were then gently deflected to give access to the infraorbital nerve which was dissected free at its most rostral extent in the orbital cavity, just caudal to the infraorbital foramen. Only 5 mm of the nerve could be freed, providing the space for placement of two chromic catgut (5-0) ligations tied loosely (with about 2 mm spacing) around it. […] Finally, scalp incision was closed using silk sutures (4-0). In sham-operated rats, the ION was exposed using the same procedure, but was not ligated.
(§3) Tapentadol (1, 3 and 10 mg/kg i.p.), reboxetine (10 mg/kg i.p.), morphine (1 and 3 mg/kg s.c.) or their vehicle (0.9% NaCl) were injected acutely 14 days after surgery, when allodynia/hyperalgesia reached a plateau in both CCI-SN and CCI-ION rats. Behavioral tests were performed at various times for up to 4 h after injection. In drug association procedure, reboxetine or saline was administered 15 min before morphine or saline.
as §1
Rats were placed individually in small (35×20×15 cm) plastic cages for a 2 h habituation period. Before any stimulation session, rats freely explored the observation cage and the testing environments for 2 h. Then mechanical sensitivity was determined with a graded series of […] von Frey filaments (Bioseb, Bordeaux, France). The filaments produced a bending force of 0.40, 0.60, 1.00, 2.00, 4.00, 6.00, 8.00, 10.00 and 12.00 g, respectively. The stimuli were applied within the ION territory (vibrissae pad) three times on the nerve-injured side and then on the contralateral side for a total of 6 applications of each filament per rat, always beginning with the filament producing the lowest force. The von Frey filaments were applied at least 3 seconds after the rat had returned to its initial resting state. For each session, the complete series of von Frey filaments was tested in increasing force order. […] The latter responses represented the highest scores in the rank-ordered response scoring system initially described by Vos et al. (1994). Under our own conditions, the mechanical response threshold was determined as the minimal force filament causing at least one among these responses to at least 2 out of the 3 applications in vibrissae territory. […] To avoid nonspecific responses, only these rats were included in the study.

[3] = tested on: CCI-SN rats; assay: Paw pressure (Randall-Selitto) test in CCI-SN rats; conditions: 10 mg/kg i.p.
Procedure: as §2
Rats were anaesthetized as above and the common sciatic nerve was exposed. Using a dissection microscope (2× magnification), four chromic catgut (5-0) ligations were tied loosely with about 1 mm spacing, proximally to the sciatic trifurcation (Bennett and Xie, 1988). Finally, the skin and muscle were sewed using silk sutures (4-0). In sham-operated animals, the same surgery was performed, but the nerve was not ligated.
as §3

## CC[C@@H](c1cccc(O)c1)[C@@H](C)CN(C)C [Tapentadol, (−)-(1R,2R)-3-(3-dimethylamino-1-ethyl-2-methyl-propyl)-phenol]
[1]
  ATF3, IL-6 and BDNF mRNA levels: had no significant effects
[2]; 10 mg/kg i.p. twice daily for four days, challenge 10 mg/kg i.p. day 19
  anti-allodynic effect after subchronic pretreatment vs saline pretreatment: had the same characteristics (amplitude, duration)
[2]; acute 1 mg/kg i.p., first 45 min
  increase in pressure threshold value compared to saline-treated CCI-ION rats: up to 6 fold
[2]; acute 10 mg/kg i.p.
  duration of statistically significant anti-allodynic effect: at least two hours
[2]; acute 10 mg/kg i.p., 30-60 min after injection
  pressure threshold values higher than those determined prior to injection: 15-20 fold
[3]
  duration of increase in pressure threshold values: at least 60 min
[3]; first 45 min after administration
  pressure threshold values to trigger vocalization, vs untreated healthy rats: +20%
[3]; first hour after treatment, vs intact healthy rats
  pressure threshold values to cause hindpaw withdrawal: did not significantly differ from those determined in intact healthy rats
